We go through two compounds from patent US9873709B2 (priority 2013, dated 2018).

The experiment deals with JAK1-dependent STAT6 phosphorylation downstream of IL-13 stimulation in TF-1 human erythroleukemia cells. The following applies: read-out: IL-13-pSTAT6 IC50, TF-1 cells.

In general, pIC50 refers to −log10 of the IC50, conventionally taken in molar units.

pIC50: −log10 of the molar value.

With `CN1CCC(N(C)C(=O)c2ccc(Nc3nc4c(C5=CCN(C(=O)C6CCC(C#N)CC6)CC5)cccn4n3)cc2)CC1` (centres unmarked) [Example 2-285, 4-[[8-[1-(4-cyanocyclohexanecarbonyl)-3,6-dihydro-2H-pyridin-4-yl]-[1,2,4]triazolo[1,5-a]pyridin-2-yl]amino]-N-methyl-N-(1-methyl-4-piperidyl)benzamide], the negative logarithm of the IC50 (pIC50) was 6.13.

Regarding `CNC(=O)C1CN(C(C)C)CCN1C(=O)c1ccc(Nc2nc3c(C4=CCN(C(=O)CCC(F)(F)F)CC4)cccn3n2)cc1` (centres unmarked) [Example 2-327, 4-isopropyl-N-methyl-1-[4-[[8-[1-(4,4,4-trifluorobutanoyl)-3,6-dihydro-2H-pyridin-4-yl]-[1,2,4]triazolo[1,5-a]pyridin-2-yl]amino]benzoyl] piperazine-2-carboxamide], the pIC50 was 7.70.
